Test results from patent publication US6681132B1, “Sodium magnetic reasonance imaging used in diagnosing tumors and assessing response to treatment” (The Trustees of Columbia University in the City of New York, priority 1999, dated 2004).

Key:
[1] = system: PC3 cells; assay: Free [Nai] with SBFI/AM in 96 well plates, fluorescent plate reader; format: cell-based, human; settings: for earliest time of increase of mean SBFI ratio ([Nai]): 10 nM taxotere or 10 μg/ml VP-16 etoposide
Description: For ion measurements (panels C & D), plates were run on a Fluoroskan II fluorescent plate reader (Titertek) using Titertek's computer Interface. Fura II loaded wells (panel D) had measured fluorescence intensities between 15,000 and 25,000 units whereby dye free wells had values ˜100 and 500. The wells with SBFI/AM loaded cells (panel C) had intensities between 4,000 and 9,000 units. Two excitation values were used for each well measurement. Ratios were derived by dividing fluorescent intensity at 345 nm excitation by that at 390 nm, both with a 508 nm mission filter. For all plates, dye free wells were examined for both control and drug treated cells, and served as background values for each wavelength. For [Cai] experiments a second means of determining background fluorescence, which gave statistically similar results, was exposure to 6 mM MnCl2 following the initial measurement. […] Backgrounds were subtracted from each cell in the protocol grouping prior to the ratio being derived. These individual well to well ratios for each protocol grouping were averaqed and used in the statistical tests which determined whether the changes in [Nai] and [Cai] following drug application were significant. Each value plotted below consisted of at least n=5 well ratios. As an additional control, we induced an acute [Cai] response in some control wells for each plate by adding thapsigargin after the initial measurement. Rapid and large [Cai] changes were detected in each case. To derive concentration values from the fluorescence readings, different, but standard approaches (26, 73), were taken with each dye. Both panels C and D show elevation of ion activity developing within 2-6 hours, and in the most part continuing for 18-24 hours.
b. SBFI/AM—This dual excitation wavelength dye is used in a fluorescent plate scanner. With SBFI/AM, we can treat cells cultured in black (non fluorescent) 96 well plates and measure average [Nai] of the cells in each well. [Nai] is calculated using ratio method and in situ calibration—thus ionophores (monensin and gramidicidin) eliminate the transmembrane gradient so that [Nai] can be altered by changing [Nao].
Comparison of the latency of these apoptotic markers with the ionic responses induced by taxotere and VP-16 at the same doses (10 nM and 10 ug/ml, respectively). […] Since its dual wavelength ultraviolet excitation requirement is impractical for flow cytometry, adherent cells were examined in 96 well culture plates using a fluorescent plate reader (Titertek, Fluoroskan II). […] The ratios of emission intensity at the two excitation wavelengths were calculated for each well, and the average ratio plotted for each time point (FIG. 3.C.; left vertical axis). […]

[2] = system: PC3 and DU145 tumors; assay: IR sodium MRI, PC3 and DU145 tumors taken as a whole; format: in vivo, nude mice; settings: PC3 and DU145 tumors plotted together
Method: (A) Chemotherapy and inversion recovery MR imaging—Following acquisition of control images, antineoplastics were administered. All IR images and SQ images were normalized to the brightest phantom within each slice (i.e., 40% Ficoll for IR and 30% Ficoll for SQ respectively). All tumors were analyzed by examining changes in intensity at the brightest—usually central area—of the tumor image. It was clearly identifiable both from manual examination with line profiles or from the pixel density histogram derived from a region of interest analysis. […] Results from PC3 tumors (solid lines, filled circles) and DU145 tumors (dashed lines, open circles) are plotted together. […]
In vivo detection of antineoplastic effects using weighted sodium MR images—Examination of the effect of chemotherapy on the IR sodium image in a series of PC3 and DU145 tumors was studied. […] Elevation is significant for each drug taken separately for the more numerous PC3 tumor experiments (taxotere, 32% increase at p<0.001, n=5; VP-16, 38% increase at p<0.0005, n=7); and is also significant for all PC3 experiments measured at 48 hrs (28%, p<0.05, n=11). […]
The effect of chemotherapy on the IR sodium image intensity in PC3 and DU145 tumors was consistent with the culture results. […] These values were calculated from human doses using standard equations which convert weight to surface area for small mammals. […]

Compound | earliest time of increase of mean SBFI ratio ([Nai]) [1] [h] | IR image intensity at 24 hrs versus control (graphs) [2] | persistence of ionic elevations ([Nai], [Cai]) ([1]; 10 nMol/L in tissue culture) | time by which ionic elevations ([Nai], [Cai]) were significant ([1]; 10 nMol/L in tissue culture) [h]
COc1cc([C@@H]2c3cc4c(cc3[C@@H](O[C@@H]3O[C@@H]5CO[C@@H](C)O[C@H]5[C@H](O)[C@H]3O)[C@H]3COC(=O)[C@H]23)OCO4)cc(OC)c1O [VP-16, etoposide] | 2 | increased image intensity |  | 
CC(=O)O[C@@]12CO[C@@H]1C[C@H](O)[C@@]1(C)C(=O)[C@H](O)C3=C(C)[C@@H](OC(=O)[C@H](O)[C@@H](NC(=O)OC(C)(C)C)c4ccccc4)C[C@@](O)([C@@H](OC(=O)c4ccccc4)[C@H]21)C3(C)C [taxotere] | 2 | increased image intensity | at least 24 hrs | ≤ 6
